ChEMBL document CHEMBL6078727 (Bioorg Med Chem, 2025)
Calls of active or inactive are those of the source. No cut-off for these calls is given here.

Legend:
[1] = (§1) Induction of mitochondrial uncoupling activity in rat L6 myoblast cells assessed as increase in oxygen consumption rate by measuring ratio of integrated area under OCR dose curve above baseline relative to BAM15 up to 200 uM over 90 mins; assay type: functional
[2] = Induction of mitochondrial uncoupling activity in rat L6 myoblast cells assessed as increase in oxygen consumption rate measured over 90 mins; assay type: functional, cell-based
[3] = Cmax in C57BL/6J mouse at 10 mg/kg, po administrated via oral gavage by LC-MS/MS analysis; assay type: ADME, organism-based; conditions: in vivo
[4] = Half-life in male C57BL/6J mouse plasma at 10 mg/kg, po administrated via oral gavage by LC-MS/MS analysis; assay type: ADME, organism-based; conditions: in vivo
L6 = assay: as §1; assay type: functional

| EC50 [2] [nM] | Cmax ([3]; po, 10 mg/kg) [nM] | t1/2 [4] [min] | Cmax ([3]; C57BL/6J) [nM] | SMILES | Activity [1] [%] | Activity (L6) |
| --- | --- | --- | --- | --- | --- | --- |
| 1200 | – | – | – | CCCCOC(=O)NNc1nc2nonc2nc1Nc1ccccc1F | 54 | – |
| 16300 | – | – | – | CCOC(=O)NNc1nc2nonc2nc1Nc1ccccc1F | 65 | – |
| 1400 | – | – | – | O=C(ONc1nc2nonc2nc1Nc1ccccc1F)c1cc(C(F)(F)F)ccc1F | 75 | – |
| 1360 | – | – | – | O=C(ONc1nc2nonc2nc1Nc1ccccc1F)c1ccc(F)cc1F | 97 | – |
| > 100000 | – | – | – | CCCC(=O)NNc1nc2nonc2nc1Nc1ccccc1F | 31 | – |
| 4600 | 220 | 27 | – | CC(C)(C)OC(=O)NNc1nc2nonc2nc1Nc1ccccc1F | 103 | – |
| 1580 | – | – | – | O=C(ONc1nc2nonc2nc1Nc1ccccc1F)c1cccc(C(F)(F)F)c1 | 71 | – |
| 6560 | – | – | – | O=C(ONc1nc2nonc2nc1Nc1ccccc1F)c1ccccc1C(F)(F)F | 65 | – |
| – | – | – | – | NNc1nc2nonc2nc1Nc1ccccc1F | – | inactive |
| 4300 | – | – | – | O=C(NNc1nc2nonc2nc1Nc1ccccc1F)c1ccc(OC(F)(F)F)cc1 | 6 | – |
| > 100000 | – | – | – | O=C(ONc1nc2nonc2nc1Nc1ccccc1F)c1ccccc1F | 45 | – |
| 1100 | – | – | – | CC(C)(C)OC(=O)NNc1nc2nonc2nc1Nc1cccc(F)c1 | 32 | – |
| 8400 | – | – | – | CN(Nc1nc2nonc2nc1Nc1ccccc1F)C(=O)OC(C)(C)C | 65 | – |
| 710 | – | – | – | O=C(ONc1nc2nonc2nc1Nc1ccccc1F)c1cccc(F)c1 | 102 | – |
| 5200 | – | – | – | CC(C)(C)C(=O)ONc1nc2nonc2nc1Nc1ccccc1F | 86 | – |
| 87600 | – | – | – | ONc1nc2nonc2nc1Nc1ccccc1F | 41 | – |
| 1100 | – | – | – | O=C(NNc1nc2nonc2nc1Nc1ccccc1F)NC1CCCC1 | 23 | – |
| 14200 | – | – | – | CCCCC(=O)NNc1nc2nonc2nc1Nc1ccccc1F | 71 | – |
| 1600 | – | – | – | CC(C)(C)OC(=O)NNc1nc2nonc2nc1Nc1cccc(Cl)c1 | 78 | – |
| – | – | – | – | ONc1nc2nonc2nc1Nc1ccc(-c2ccc(F)cc2)cc1 | – | inactive |
| 1490 | – | – | – | Cc1cc(C)cc(C(=O)ONc2nc3nonc3nc2Nc2ccccc2F)c1 | 9 | – |
| – | – | – | – | Cc1ccc(Nc2nc3nonc3nc2NO)cc1 | – | inactive |
| 340 | – | 15 | 2 | O=C(ONc1nc2nonc2nc1Nc1ccccc1F)c1ccc(OC(F)(F)F)cc1 | 118 | – |
| 1100 | 6600 | 35.4 | – | CC(C)COC(=O)NNc1nc2nonc2nc1Nc1ccccc1F | 88 | – |
| 77000 | – | – | – | CNNc1nc2nonc2nc1Nc1ccccc1F | 15 | – |
| 4600 | 170 | 108 | – | CC(C)(C)OC(=O)NNc1nc2nonc2nc1Nc1ccccc1Cl | 87 | – |
| – | – | – | – | ONc1nc2nonc2nc1Nc1cc(F)cc(F)c1 | – | inactive |
| – | – | – | – | O=C(NNc1nc2nonc2nc1Nc1ccccc1F)c1cccc(F)c1 | 8 | – |
